The values that follow are results of earlier work, collected in PMC4522190 (ChemistryOpen, 2015).

The data set relates to proteases. The note with it: statement without data.

Regarding cyclo-RRRWFW (head to tail) [c-WFW], the “metabolic stability against proteases (in words)” value is given as “good metabolic stability against proteases”.
